Results taken from the NIST ThermoML archive (doi:10.1021/acs.jced.6b00523).
Values joined by “and” are separate entries in the source; they are usually repeats but may differ in a detail not shown here. Identical values can stand only once.

Settings: Closed cell (Static) method

[CH]1C=CC=C1.[CH]1C=CC=C1.[Fe] [ferrocene]
Crystal
Settings | vapor or sublimation pressure
276.97 K | 9.4e-05 kPa and 9.7e-05 kPa
276.98 K | 0.000101 kPa
282.75 K | 0.000181 kPa and 0.000189 kPa
282.76 K | 0.000194 kPa
286.28 K | 0.000288 kPa
286.29 K | 0.000285 kPa
286.31 K | 0.000283 kPa
288.24 K | 0.000335 kPa and 0.000344 kPa
292.28 K | 0.000536 kPa
292.29 K | 0.000527 kPa and 0.000529 kPa
293.76 K | 0.000622 kPa and 0.000626 kPa and 0.000627 kPa
294.28 K | 0.000652 kPa
294.29 K | 0.000646 kPa
294.34 K | 0.00065 kPa
296.77 K | 0.000841 kPa
296.78 K | 0.000848 kPa and 0.000858 kPa
299.19 K | 0.001072 kPa and 0.001073 kPa and 0.001078 kPa
302.11 K | 0.001417 kPa
302.13 K | 0.001428 kPa and 0.001429 kPa
303.24 K | 0.00162 kPa
303.25 K | 0.001618 kPa
304.61 K | 0.001809 kPa and 0.001811 kPa and 0.001815 kPa
307.47 K | 0.002395 kPa and 0.002397 kPa and 0.002384 kPa
310.03 K | 0.003047 kPa and 0.003053 kPa
310.04 K | 0.003068 kPa
312.78 K | 0.003906 kPa and 0.00391 kPa and 0.003916 kPa
314.08 K | 0.00442 kPa and 0.004424 kPa
314.09 K | 0.004449 kPa
315.43 K | 0.004969 kPa and 0.004971 kPa
318.06 K | 0.006287 kPa and 0.006293 kPa and 0.006304 kPa
320.77 K | 0.007956 kPa
323.34 K | 0.009923 kPa
323.35 K | 0.009927 kPa and 0.009932 kPa
324.89 K | 0.01134 kPa and 0.01135 kPa
326.09 K | 0.01251 kPa and 0.01252 kPa
328.59 K | 0.01539 kPa
328.6 K | 0.0154 kPa and 0.01541 kPa
331.35 K | 0.01928 kPa
331.36 K | 0.01929 kPa and 0.0193 kPa
333.86 K | 0.02352 kPa
335.51 K | 0.02691 kPa and 0.02692 kPa
336.59 K | 0.02929 kPa
336.6 K | 0.02929 kPa
339.07 K | 0.03535 kPa
339.08 K | 0.03533 kPa and 0.03537 kPa
341.81 K | 0.04367 kPa and 0.04368 kPa and 0.04369 kPa
344.2 K | 0.052 kPa
344.21 K | 0.05207 kPa and 0.0521 kPa
346.02 K | 0.0598 kPa and 0.05982 kPa and 0.05985 kPa
349.36 K | 0.07591 kPa
349.37 K | 0.07593 kPa and 0.07595 kPa
351.22 K | 0.08709 kPa and 0.08711 kPa and 0.08712 kPa
354.37 K | 0.1082 kPa
356.27 K | 0.1242 kPa
359.5 K | 0.1538 kPa
359.51 K | 0.1539 kPa
362.73 K | 0.1914 kPa and 0.1916 kPa
366.77 K | 0.2492 kPa and 0.2493 kPa and 0.2494 kPa

c1ccc2ccccc2c1 [naphthalene]
Settings | vapor or sublimation pressure
276.72 K, Crystal | 0.001118 kPa
276.73 K, Crystal | 0.001122 kPa
276.74 K, Crystal | 0.001118 kPa
280.12 K, Crystal | 0.001625 kPa
280.15 K, Crystal | 0.001634 kPa
280.17 K, Crystal | 0.001644 kPa
283.27 K, Crystal | 0.002321 kPa and 0.002329 kPa and 0.002333 kPa
286.33 K, Crystal | 0.003264 kPa and 0.003275 kPa
286.34 K, Crystal | 0.003276 kPa
289.39 K, Crystal | 0.004482 kPa and 0.004484 kPa and 0.004493 kPa
292 K, Crystal | 0.005885 kPa and 0.005899 kPa and 0.005902 kPa
292.04 K, Crystal | 0.005878 kPa
292.05 K, Crystal | 0.005881 kPa and 0.005889 kPa
293.36 K, Crystal | 0.006861 kPa
293.38 K, Crystal | 0.006881 kPa
293.4 K, Crystal | 0.006871 kPa
294.91 K, Crystal | 0.007907 kPa
294.94 K, Crystal | 0.007905 kPa
294.96 K, Crystal | 0.007922 kPa
296.91 K, Crystal | 0.009768 kPa and 0.009773 kPa
296.92 K, Crystal | 0.009786 kPa
297.67 K, Crystal | 0.01039 kPa and 0.0104 kPa
297.68 K, Crystal | 0.01041 kPa
300.93 K, Crystal | 0.01426 kPa
300.95 K, Crystal | 0.01427 kPa and 0.01428 kPa
302.6 K, Crystal | 0.01691 kPa and 0.01696 kPa
303.67 K, Crystal | 0.01833 kPa and 0.01835 kPa
306.52 K, Crystal | 0.02413 kPa
306.6 K, Crystal | 0.02433 kPa
306.65 K, Crystal | 0.02446 kPa
308.22 K, Crystal | 0.02835 kPa and 0.02834 kPa
312.83 K, Crystal | 0.04277 kPa
312.84 K, Crystal | 0.04281 kPa
312.85 K, Crystal | 0.04282 kPa
313.85 K, Crystal | 0.04691 kPa
315.09 K, Crystal | 0.05173 kPa and 0.05174 kPa
317.19 K, Crystal | 0.06259 kPa and 0.06261 kPa and 0.06262 kPa
319.43 K, Crystal | 0.07588 kPa and 0.07592 kPa
324.1 K, Crystal | 0.1124 kPa
324.99 K, Crystal | 0.1206 kPa
325 K, Crystal | 0.1206 kPa
325.01 K, Crystal | 0.1206 kPa
326.36 K, Crystal | 0.1338 kPa
326.37 K, Crystal | 0.1338 kPa
328.22 K, Crystal | 0.1567 kPa
330.59 K, Crystal | 0.1886 kPa
330.6 K, Crystal | 0.1887 kPa
335.27 K, Crystal | 0.2723 kPa
335.28 K, Crystal | 0.2726 kPa
335.31 K, Crystal | 0.2732 kPa
336.07 K, Crystal | 0.288 kPa and 0.2881 kPa
337.45 K, Crystal | 0.3184 kPa
337.46 K, Crystal | 0.3185 kPa
339.09 K, Crystal | 0.3626 kPa and 0.3628 kPa and 0.3624 kPa
341.45 K, Crystal | 0.4305 kPa
341.46 K, Crystal | 0.4306 kPa
346.83 K, Crystal | 0.6347 kPa
346.84 K, Crystal | 0.6347 kPa
348.58 K, Crystal | 0.7143 kPa and 0.7145 kPa and 0.7148 kPa
352.18 K, Crystal | 0.9195 kPa and 0.9196 kPa
355.35 K, Liquid | 1.098 kPa
358.34 K, Liquid | 1.266 kPa
358.36 K, Liquid | 1.267 kPa
358.38 K, Liquid | 1.269 kPa
